Experimental findings from PubChem BioAssay (NCI) are described below.

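Each compound was tested at five concentrations against cells in 96-well plates for 48 hours. TGI: concentration producing complete growth inhibition.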

Among the test systems are SF-295 CNS; TK-10 renal; U251 CNS; HOP-92 NSCLC; DU-145 prostate; MALME-3M melanoma; 786-0 renal; IGROV1 ovarian; MOLT-4 leukemia; ACHN renal.
Holding throughout (experiment): NCI anticancer screen, dose series, 48 h

On to `Cc1nc(-c2ccccc2)c(C)n2c1nc1ccccc12`, for which the TGI in the assay on SF-295 CNS is more than 100 µM; in the assay with TK-10 renal, 84 µM; in the assay on U251 CNS it was more than 100 µM; in the assay with HOP-92 NSCLC it was 47.9 µM; in the assay on DU-145 prostate, more than 100 µM; with MALME-3M melanoma, more than 100 µM. For the same compound, the TGI with 786-0 renal, in the assay with IGROV1 ovarian and in the assay on MOLT-4 leukemia was more than 100 µM each time.
Take `CC(CC(=O)CO[C@H]1[C@H](O)[C@@H](O)[C@@H](O)[C@@H]2NC(=O)c3c(cc4c(c3O)OCO4)[C@H]21)OC1OC(CO)C(O)C(O)C1O` (some centres not stated): the TGI in the assay with SF-295 CNS was found to be 5.65 µM; in the assay with TK-10 renal it was 1.55 µM; with HOP-92 NSCLC, 4.57 µM; in the assay on DU-145 prostate, 0.664 µM; in the assay with MALME-3M melanoma, 3.16 µM; in the assay with 786-0 renal it was 2.92 µM. The TGI in the assay on IGROV1 ovarian turned out to be 6.82 µM; with ACHN renal, 2.6 µM; in the assay with MOLT-4 leukemia, 3.54 µM.
Take `CC1=C2C(=O)O[C@@H](c3ccoc3)[C@]2(C)CCC1=O`: the TGI in the assay with SF-295 CNS, in the assay with U251 CNS, in the assay on HOP-92 NSCLC, with DU-145 prostate, with 786-0 renal and in the assay on IGROV1 ovarian was more than 100 µM in each case. Further, the TGI with ACHN renal and in the assay with MOLT-4 leukemia was more than 100 µM each time.
Regarding `CC(=O)OC1/C(=C/c2ccc([N+](=O)[O-])cc2)C[C@H]2[C@@H]3CC=C4C[C@@H](OC(C)=O)CC[C@]4(C)[C@H]3CC[C@]12C` (some centres not stated), the TGI was more than 100 µM in the assay on SF-295 CNS; more than 80.3 µM in the assay with TK-10 renal; more than 100 µM in the assay with U251 CNS; more than 100 µM in the assay with HOP-92 NSCLC; more than 100 µM in the assay with DU-145 prostate; more than 100 µM in the assay with MALME-3M melanoma. Moreover, the TGI in the assay with 786-0 renal, in the assay with IGROV1 ovarian and in the assay with ACHN renal was more than 100 µM each time.
For the compound `COC(=O)[C@@H]1C=C[C@@H](C#N)n2c(=O)n(-c3ccccc3)c(=O)n21`, the TGI in the assay on SF-295 CNS was more than 100 µM; in the assay with TK-10 renal, more than 100 µM; with U251 CNS, more than 100 µM; in the assay on HOP-92 NSCLC, more than 100 µM; in the assay on DU-145 prostate, more than 100 µM; in the assay on 786-0 renal, 84.7 µM. For the same compound, the TGI with IGROV1 ovarian is more than 100 µM; with ACHN renal, more than 100 µM; in the assay with MOLT-4 leukemia, 67.1 µM.
Turning to `O/N=c1/ccn(O)c2ccccc12`, the TGI is 2.9 µM with SF-295 CNS; 5.87 µM in the assay on TK-10 renal; 6.65 µM in the assay with U251 CNS; 8.65 µM in the assay on HOP-92 NSCLC; 7.76 µM in the assay with DU-145 prostate; 18.9 µM in the assay on MALME-3M melanoma. The results for the TGI in the assay on 786-0 renal, in the assay with IGROV1 ovarian and with ACHN renal were 10.3 µM, 5.12 µM and 2.67 µM, respectively.
For `Cn1c(=O)n2n(c1=O)Cc1cccc3cccc(c13)C2`, the TGI in the assay on SF-295 CNS, in the assay with TK-10 renal, with U251 CNS, in the assay with HOP-92 NSCLC, in the assay on DU-145 prostate and in the assay on MALME-3M melanoma was more than 100 µM throughout. For the same compound, the TGI in the assay on 786-0 renal, with ACHN renal and in the assay with MOLT-4 leukemia was more than 100 µM throughout.
In the case of `NS(=O)(=O)c1ccc(NC(=O)c2cc([N+](=O)[O-])cc([N+](=O)[O-])c2)cc1`, the TGI in the assay with TK-10 renal was more than 100 µM; in the assay with U251 CNS, more than 100 µM; in the assay with HOP-92 NSCLC, 91.3 µM; in the assay with DU-145 prostate it was more than 100 µM; in the assay with MALME-3M melanoma, 57.2 µM; in the assay on 786-0 renal it was more than 100 µM. The TGI in the assay on IGROV1 ovarian was 79.9 µM; in the assay with MOLT-4 leukemia, more than 100 µM.
Take `Cc1nc2c(o1)C(=O)c1ccccc1C2=NC1CCCCC1N` (configuration not stated): the TGI in the assay with TK-10 renal was 3.84 µM; in the assay with U251 CNS, 1.32 µM; with HOP-92 NSCLC it was 1.97 µM; with DU-145 prostate it was 2.8 µM; in the assay on MALME-3M melanoma it was 0.275 µM; with 786-0 renal, 3.43 µM. The TGI is 2.89 µM in the assay with IGROV1 ovarian, 2 µM with ACHN renal and 1.46 µM in the assay with MOLT-4 leukemia.
Take `CC(=O)OCCC1c2ccccc2-n2nc(-c3ccccc3)c(O)c21` (configuration not stated): the TGI with SF-295 CNS came to 45 µM; in the assay on TK-10 renal it was 43.2 µM; in the assay with U251 CNS it was 26.7 µM; in the assay with HOP-92 NSCLC, 27.4 µM; in the assay on DU-145 prostate it was 41.1 µM; with 786-0 renal it was 38.4 µM. Besides, the TGI in the assay on ACHN renal was determined as 45.1 µM; with MOLT-4 leukemia it was 56.3 µM.
As for `CC12CC3CC/C(=N\O)C(C1)C3(N1CCOCC1)C/C2=N/O` (configuration not stated), the TGI in the assay with SF-295 CNS, in the assay on U251 CNS, in the assay on HOP-92 NSCLC, in the assay on DU-145 prostate, with MALME-3M melanoma and with 786-0 renal was more than 100 µM each time. Moreover, the TGI in the assay on IGROV1 ovarian, in the assay on ACHN renal and with MOLT-4 leukemia was more than 100 µM each time.
As to `COc1ncnc2c1cnn2Cc1cn(COCC(O)CO)nn1` (configuration not stated), the TGI with SF-295 CNS, with TK-10 renal, with U251 CNS, in the assay on HOP-92 NSCLC, with DU-145 prostate and in the assay with 786-0 renal was more than 100 µM in each case. Moreover, the TGI with IGROV1 ovarian, in the assay on ACHN renal and in the assay with MOLT-4 leukemia was more than 100 µM in each case.
With `O=C(c1ccc(Cl)cc1Cl)N(Cc1cccnc1)C(=S)N(Cc1cccnc1)C(=O)c1ccc(Cl)cc1Cl`, the TGI in the assay on SF-295 CNS turned out to be 41.5 µM; with TK-10 renal, 8.7 µM; in the assay with U251 CNS, 9.88 µM; in the assay with HOP-92 NSCLC, 12 µM; with DU-145 prostate, 13 µM; with MALME-3M melanoma, 36.9 µM. Also, the TGI with 786-0 renal was 5.34 µM; in the assay on ACHN renal, 23.5 µM; in the assay with MOLT-4 leukemia, more than 100 µM.
As for `CCCCCCCCCCCCCCCC(=O)ON1C(=S)NC(C)(c2ccccc2)C1=S` (configuration not stated), the TGI in the assay with SF-295 CNS, with TK-10 renal, in the assay with HOP-92 NSCLC, with DU-145 prostate, in the assay with MALME-3M melanoma and with 786-0 renal was more than 100 µM in each case. Further, the TGI in the assay with IGROV1 ovarian, in the assay with ACHN renal and in the assay on MOLT-4 leukemia was more than 100 µM in each case.
As for `COC(=O)C1Cc2c([nH]c3ccccc23)C(c2cccc(O)c2)N1` (configuration not stated), the TGI is more than 100 µM with SF-295 CNS; more than 100 µM with TK-10 renal; more than 100 µM in the assay with U251 CNS; 79.9 µM in the assay with HOP-92 NSCLC; 55.3 µM with DU-145 prostate; more than 100 µM in the assay on 786-0 renal. Further, the TGI in the assay on IGROV1 ovarian, in the assay with ACHN renal and in the assay on MOLT-4 leukemia was more than 100 µM in each case.
